US20100216722A1, “USE OF THE PEPTIDE PRO-GLY-THR-CYS-GLU-ILE-CYS-ALA-TYR-ALA-ALA-CYS-THR-GLY-CYS AS A THERAPEUTIC AGENT” (priority 2007, published 2010)
Positions of bridges follow the written chain, without caps; N, C: chain ends. Residues, ends and D or L forms follow the SMILES beside them.

Assays:
HepG2-2.2.15 cells = test: Cytotoxicity in HepG2-2.2.15 cells (dye uptake cell viability); conditions: HepG2-2.2.15 cells; peptide 10 micrograms per ml; dye uptake assay
HIV-1IIIB = test: HIV-1 antiviral assay (CPE reduction, MTS) in CEM-SS cells; assay type: cell-based; conditions: peptide 10 micrograms per ml, 6 days post-infection
HCMV strain AD169 = test: HCMV plaque reduction assay in MRC-5 cells; conditions: HCMV AD169 in MRC-5 cells; peptide 10 micrograms per ml; 7-10 days
MRC-5 cells = conditions: human, 6 days
Experimental: (§2) For cytotxicity testing, MRC-5 cells were seeded at 2,500 cells/well in 96 well plates using growth medium. […] The following day, peptide was added and tested in duplicates. After a 6 days incubation period, cell viability was measured using CellTiter 96 Solution (Promega). Plates were incubated for additional 4 hours at 37° C. Adhesive plate sealers were used in place of lids, the sealed plates were inverted several times to mix the soluble formazan product and the plate was read spectrophotometrically at 490/560 nm with a Molecular Devices Vmax plate reader.

HUVEC = test: Endothelial tube formation assay; assay type: cell-based, human; conditions: peptide 10 micrograms per ml, 20 hours
Experimental: The endothelial tube formation assay is based on the ability of endothelial cells to form three-dimensional capillary-like tubular structures when cultured on a gel of basement membrane extract. The endothelial tube formation assay represents a powerful model for studying inhibition and induction of angiogenesis. Pre-labeled HUVEC with Calcein AM were seeded in a 96-well culture plate coated with extracellular metrix (Chemicon international Cat. ECM625) and treated with test peptide—10 micrograms per ml—in full growth medium. Positive control wes vehicle only. The endothelial cells were allowed to form tubes foe 20 hours and were then examined under an inverted fluorescent microscope. Duplicate wells for each treatment were photographed and quantitatively analyzed for an average tubule length using image analysis software ImageProPlus. Raw data were expressed as average tubule lengths in pixels±standard deviation. Statistic p values were computed using the Student's t-test.

[1] = Cytotoxicity in HepG2-2.2.15 cells (dye uptake cell viability); conditions: human
A549 cells [2] = test: Apoptosis induction assay (Annexin-5); assay type: cell-based, human; conditions: apoptosis in A549 cells, peptide 10 micrograms per ml, 24 hours
Text: Human A549 cells (carcinomic human alveolar basal epithelial cells) were utilized in the experiments employing the Annexin-5 apoptosis assay. Annexin-5 is a member of a highly conserved protein family that binds acidic phospholipids in a calcium-dependent manner. […] Phosphatidylserine is translocated from the inner side of the plasma membrane to the outer layer when cells undergo death by apoptosis or cell necrosis and serves as a signal by which cell destined for death are recognized by phagocytes. Test peptide—10 micrograms per ml—were exposed for 24 hours to the A549 cells before they were analyzed for signs of apoptosis.

[3] = tested on: Human Peripheral Blood Mononuclear Cells (PBMC); test: T cell proliferation assay (PHA, 3H-thymidine); assay type: cell-based; conditions: peptide 10 micrograms per ml, 3H-thymidine incorporation
Experimental: (§1) Human Peripheral Blood Mononuclear Cells (PBMC) were obtained from normal human donors. The T cell proliferation was induced by stimulation of the cells with the T cell mitogen phytohemagglutinin (PHA), either in the absence (positive proliferation control), or in the presence of test peptide—10 micrograms per ml—to examine their effects on the T cell proliferating response. 10^5/well PBMC were plated in 96-well microtiter plates and assayed in duplicate with the peptide. Cell cultures were incubated at 37° C. for 3 days in a 5% CO2 incubator and were thereafter pulsed with 1 microCi/well ^3H-thymidine for additional 12 hours of culture. At the end of incubation time, the plates were harvested and the cells counted by liquid scintillation for the incorporation of ^3H-thymidine as a measure of T cell proliferation.

A549 cells [4] = test: Propidium iodide cell cycle assay; assay type: cell-based, human; conditions: peptide 10 micrograms per ml, 24 hours, Propidium iodide FACS
Experimental: Human A549 cells (carcinomic human alveolar basal epithelial cells) were utilized in the experiments employing the Propidium iodide cell cycle assay. The eukaryotic cell cycle is a series of events that take place in a cell leading to its replication. Propidium iodide is an intercalating agent and a fluorescent molecule that can be used to stain DNA. Cells were incubated for 24 hours with test peptide—10 micrograms per ml—or left untreated. […] The cells were pipetted into 2.5 ml absolute EtOH (final concentration approx. 70%) and incubated on ice for 15 min. Thereafter, cells were pelleted at 1500 rpm for 5 min and resuspended in Propidium iodide solution in PBS. After incubation for 40 min at 37° C., cells were analyzed in the FACS.

in vitro [5] = conditions: human, MRC-5 cells (embryonal lung fibroblasts)
Experimental: as §2

in vitro [6] = conditions: human, CEM-SS cells
A549 cells [7] = test: Apoptosis prevention assay (C2 ceramide, Annexin-5); assay type: cell-based, human; conditions: A549 cells pretreated 30 min with peptide 10 micrograms per ml, then C2 ceramide
Text: Human A549 cells (carcinomic human alveolar basal epithelial cells) were utilized in the experiments employing the Annexin-5 apoptosis assay. Annexin-5 is a member of a highly conserved protein family that binds acidic phospholipids in a calcium-dependent manner. […] Phosphatidylserine is translocated from the inner side of the plasma membrane to the outer layer when cells undergo death by apoptosis or cell necrosis and serves as a signal by which cell destined for death are recognized by phagocytes. A549 cells were pretreated for 30 min with test peptide—10 micrograms per ml—followed by the exposure to C2 ceramide. Ceramide mediates cell apoptosis through the activation of the mitogen activating protein kinase (MAPK) and the stress activated kinase (JNK/SAPK). C2 ceramide is a synthetic, membrane soluble analog of ceramide.

[8] = tested on: macrophages differentiated from human PBMC; test: TNF alpha production assay (LPS-stimulated macrophages, ELISA); assay type: cell-based; conditions: peptide 10 micrograms per ml, 30 min before lipopolysaccharide 200 ng/ml, overnight
Experimental: Human Peripheral Blood Mononuclear Cells (PBMC) were obtained from normal human donors. The macrophages were prepared by adherence of PBMC to the plastic wells of the plates. After 8 days in culture in the presence of recombinant human macrophage-colony stimulating factor at 2 ng/ml, differentiated macrophages were preincubated with test peptide—10 micrograms per ml—for 30 min, followed by in-well stimulation by the addition of lipopolysaccharide at a final concentration of 200 ng/ml. Not stimulated macrophages served as negative background control. After overnight incubation, supernatants from the control and LPS-stimulated cultures were harvested and assayed for TNF alpha production employing a TNF alpha specific ELISA.

[9] = tested on: hepatitis B virus (HBV) ayw strain; test: HBV replication assay in HepG2-2.2.15 cells (TaqMan PCR of secreted HBV DNA); assay type: cell-based; conditions: peptide 10 micrograms per ml, six days, HBV DNA in supernatant
[10] = tested on: spleen cells of Ovalbumin-immunized Balb/c mice; test: Th1/Th2 cytokine profiling assay (Ovalbumin-restimulated spleen cells, CBA kit); assay type: cell-based, mouse; conditions: peptide 10 micrograms per ml; Ovalbumin restimulation; 72 hours
Experimental: The Balb/c mice (originated in 1923, it is a popular strain and is used in many different research disciplines. […] On day 50, spleens of the mice were harvested (3 weeks after last boost with Ovalbumin). Cells were cultured (2×10^5/well in triplicate) and incubated with culture medium or test peptide—10 micrograms per ml—for 30 min. Thereafter, additional Ovalbumin was added to the cells at 10 micrograms/ml for in vitro restimulation of the cells. 72 hours later, cell supernatants were harvested and assayed using the Becton Dickinson Mouse Th1/Th2 Cytokine CBA Kit. This kit can be used to measure Interleukin-2 (IL-2), Interleukin-4 (IL-4), Interleukin-5 (IL-5), Interferon-γ (IFN-γ), and Tumor Necrosis Factor-α (TNF-α) protein levels in a single sample. The kit performance has been optimized for analysis of physiologically relevant concentrations (pg/ml levels) of specific cytokine proteins in tissue culture supernatants and serum samples.

RAW 264.7 cells = test: Phagocytosis assay (Fluorescein-labeled Escherichia coli, flow cytometry); assay type: cell-based, mouse; conditions: peptide 10 micrograms per ml, 30 min before Fluorescein-labeled E. coli
Experimental: Cells were incubated in 12×75 mm tubes at 37° C. with test peptide—10 micrograms per ml—for 30 min prior to adding Fluorescein-labeled Escherichia coli bacteria as the agent to be ingested. […] The samples were then analyzed by flow cytometry to determine the amount of phagocytosis as a function of brightness (the greater the phagocytic activity, the more fluorescence in the macrophage population). Data are reported as % positive and the mean fluorescence intensity (MFI) of positively stained cells.

[11] = tested on: Primary Human endothelial cells (HUVEC); test: Endothelial cell migration assay; assay type: cell-based; conditions: peptide 10 micrograms per ml, 22 hours
Experimental: Endothelial cell migration is a prerequisite for the process of neo-vascularization or angiogenesis which is crucial for on-site recruitment of blood vessel formation. […] Thereafter, designated concentration of test peptide—10 micrograms per ml—was added in duplicate wells. The endothelia were allowed to migrate for 22 hours at 37° C., then, migrated cells were fixed and stained with Hoechst 33342 dye. Images of 3 fields per insert were taken and the number of migrated cells per field were quantified using the ImageProPlus software. Data were analyzed for the average number of the migrated cells and standard deviation of six data points for each treatment condition. Active test peptide against HUVEC migration was determined based on 50% inhibition of migrated cells as compared with the control. Statistic p values were computed using the Student's t-test.

[12] = tested on: Human Peripheral Blood Mononuclear Cells (PBMC); test: B cell proliferation assay (SAC plus Interleukin-2, 3H-thymidine); assay type: cell-based; conditions: peptide 10 micrograms per ml, 3H-thymidine incorporation
Experimental: as §1, with “The B” for “The T”, “the B” for “the T”, “mitogen Staphylococcus aureus Cowans I (SAC) plus Interleukin-2,” for “mitogen phytohemagglutinin (PHA),”, “cell” for “cell proliferating”, “of B” for “of T”

Nc1ccn([C@@H]2CS[C@H](CO)O2)c(=O)n1 [3TC, Lamivudine, reference compound]
% Cell viability (HepG2-2.2.15 cells): 95.8%

Cc1cn([C@H]2C[C@H](N=[N+]=[N-])[C@@H](CO)O2)c(=O)[nH]c1=O [AZT, zidovudine]
% CPE reduction in HIV-1 infected CEM-SS cells (HIV-1IIIB): 99%

Nc1nc(O)c2ncn(COC(CO)CO)c2n1 [Ganciclovir, reference compound]
% plaque reduction (HCMV strain AD169): 100%
% Cell viability (MRC-5 cells): 100%

CC[C@H](C)[C@@H]1NC(=O)[C@H](CCC(=O)O)NC(=O)[C@@H](NC(=O)[C@@H](NC(=O)CNC(=O)[C@@H]2CCCN2)[C@@H](C)O)CSSC[C@@H]2NC(=O)[C@H](C)NC(=O)[C@H](C)NC(=O)[C@H](Cc3ccc(O)cc3)NC(=O)[C@H](C)NC(=O)[C@H](CSSC[C@@H](C(=O)O)NC(=O)CNC(=O)[C@H]([C@@H](C)O)NC2=O)NC1=O [Guanylin, Pro-Gly-Thr-Cys-Glu-Ile-Cys-Ala-Tyr-Ala-Ala-Cys-Thr-Gly-Cys-OH] (H-PGTCEICAYAACTGC-OH; disulfide 4-12, 7-15 (inferred); N-terminus assumed)
% plaque reduction (HCMV strain AD169): 0.0%
% inhibition of tube formation (HUVEC): 10.0%
% CPE reduction in HIV-1 infected CEM-SS cells (HIV-1IIIB): 13.2%
viability at 144 h, 10 micrograms per ml [1]: 91.2%
% of induction (A549 cells [2]): 1.5%
% of PHA induced control [3]: 93.7%
Cell cycle analysis G0/G1 (A549 cells [4]): 58.7
Cell cycle analysis G2/M (A549 cells [4]): 9.8
Cell cycle analysis S (A549 cells [4]): 31.5
viability at 144 h (in vitro [5]): 100%
viability at 10 micrograms per ml (in vitro [6]): 100%
% prevention of ceramide induced apoptosis (A549 cells [7]): 0.0%
% of LPS induction [8]: 96.6%
% inhibition of HBV replication in HEP G2 cells [9]: 21.7%
IFNγ spleen cells; TH1 response (% of control) [10]: 62.0 % of control
IL-2 spleen cells (% of control) [10]: 135.5 % of control
IL-4 spleen cells; TH2 response (% of control) [10]: 143.8 % of control
IL-5 spleen cells; TH2 response (% of control) [10]: 82.6 % of control
TNF-a spleen cells; TH1 response (% of control) [10]: 108.5 % of control
% of control phagocytosis (RAW 264.7 cells): 105.9%
% inhibition of migration [11]: 24.0%
% of SAC/IL2 induced control [12]: 97.0%

CC(C)(C)NC(=O)[C@@H]1CN(Cc2cccnc2)CCN1C[C@@H](O)C[C@@H](Cc1ccccc1)C(=O)N[C@H]1c2ccccc2C[C@H]1O [Indinavir, indinavir]
% CPE reduction in HIV-1 infected CEM-SS cells (HIV-1IIIB): 100%
